What was measured:
VSV = assay type: cell-based, Vesicular stomatitis virus; conditions: 10 IU/ml, human GM 2504 fibroblast cell line
HSV-1 = test: Virus yield reduction, HSV-1; assay type: cell-based, Herpes simplex, Type 1; conditions: 100 IU/ml, human GM 2504 fibroblast cell line
[1] = tested on: Staphylococcus aureus 502A; test: Bactericidal activity of human neutrophil peptides, S. aureus; assay type: cell-based; conditions: comparison to Table VI
E. coli ML-35 = test: Bactericidal activity of human neutrophil peptides, E. coli ML-35; assay type: cell-based; conditions: comparison to Table VI
[2] = tested on: Cryptococcus neoformans C-384 (Type C); test: Antifungal assay of human neutrophil peptides; assay type: cell-based; conditions: comparison to Table VI
S. albus = test: Antibacterial action, % killing (Table II), S. albus; assay type: cell-based, Staphylococcus albus; conditions: 50 μg/ml peptide, 10^7 bacterial cells/ml, 20 min, 37°
Description: (§1) To test antibacterial action of the polypeptides, the following protocol was employed. Various species at 10^7 bacterial cells/ml are incubated for 20 min at 37° with 50 μg/ml of the candidate peptide. Colony counts (viable organisms) are made at the outset of the incubation--beforeaddition of the candidate peptide--and after 20 min of incubation with the candidate peptide.

S. aureus 502A = test: Antibacterial action, % killing (Table II), S. aureus 502A; assay type: cell-based, Staphylococcus aureus; conditions: 50 μg/ml peptide, 10^7 bacterial cells/ml, 20 min, 37°
Description: as §1

L. monocytogenes = test: Antibacterial action, % killing (Table II), L. monocytogenes; assay type: cell-based, Listeria monocytogenes; conditions: 50 μg/ml peptide, 10^7 bacterial cells/ml, 20 min, 37°
Description: as §1

E. coli = test: Antibacterial action, % killing (Table II), E. coli; assay type: cell-based, Escherichia coli; conditions: 50 μg/ml peptide, 10^7 bacterial cells/ml, 20 min, 37°
Description: as §1

Ps. aeruginosa = test: Antibacterial action, % killing (Table II), Ps. aeruginosa; assay type: cell-based, Pseudomonas aeruginosa; conditions: 50 μg/ml peptide, 10^7 bacterial cells/ml, 20 min, 37°
Description: as §1

S. marscescens = test: Antibacterial action, % killing (Table II), S. marscescens; assay type: cell-based, Serratia marscescens; conditions: 50 μg/ml peptide, 10^7 bacterial cells/ml, 20 min, 37°
Description: as §1

[3] = tested on: Staphylococcus aureus 566; test: Antibacterial activity of rabbit granulocyte peptides (Table III), S. aureus 566; assay type: cell-based; conditions: 50 μg/ml, 20 min, 37° C., 10 mM sodium phosphate buffer pH 7.4
Description: (§2) The procedure parallels that reported in Lehrer et al., Infection and Immunity (1983) 42:10-14. […] The subculture was grown at 37° C. for 4 h with shaking to provide mid-logarithmic phase organisms that were washed twice with buffer by centrifugation (2000×g, 10 min), and then quantitated spectrophotometrically at 620 nm, with reference to previously established CFU/Optical Density relationships. Bacteria were suspended and experiments were performed in 10 mM sodium phosphate buffer, pH 7.4. In some experiments, buffers were supplemented with 0.14 M NaCl ("high" ionic strength). […] In some experiments, 10 mM phosphate buffer with a pH of 5.8 and conductivity of 1.36 mMHO was used. Peptide "stock solutions" were prepared at 500 μg/ml (microbiuret assay) in 0.01% acetic acid, and stored at -20° C. Typically, incubation mixtures contained 1×10^5 bacterial CFU and 5 μg of peptide in 100 μl of buffer. After incubation for 20 min at 37° C., 900 μl of the same buffer was added, and two additional serial tenfold dilutions were made with that buffer. Duplicate 100 μl aliquots from the three serial dilutions were spread over appropriate nutrient agar plates and incubated for 24-72 h to insure full colony development. Killing of microorganisms was expressed as the logarithm10 No /N, where No represented the initial colony count and N represented the colony count after incubation with peptide. There was no significant alteration in colony count when any of the test organisms were exposed to peptide-free buffer for 20 min.

[4] = tested on: Staphylococcus aureus 502A; test: Antibacterial activity of rabbit granulocyte peptides (Table III), S. aureus 502A; assay type: cell-based; conditions: 50 μg/ml, 20 min, 37° C., 10 mM sodium phosphate buffer pH 7.4
Description: as §2

[5] = tested on: Staphylococcus aureus J.F.; test: Antibacterial activity of rabbit granulocyte peptides (Table III), S. aureus J.F.; assay type: cell-based; conditions: 50 μg/ml, 20 min, 37° C., 10 mM sodium phosphate buffer pH 7.4
Description: as §2

[6] = tested on: Staphylococcus epidermidis UCLA-622; test: Antibacterial activity of rabbit granulocyte peptides (Table III), S. epidermidis; assay type: cell-based; conditions: 50 μg/ml, 20 min, 37° C., 10 mM sodium phosphate buffer pH 7.4
Description: as §2

[7] = tested on: Streptococcus pneumoniae Type III; test: Antibacterial activity of rabbit granulocyte peptides (Table III), S. pneumoniae; assay type: cell-based; conditions: 50 μg/ml, 20 min, 37° C., 10 mM sodium phosphate buffer pH 7.4
Description: as §2

[8] = tested on: Streptococcus agalactiae Type-I-A; test: Antibacterial activity of rabbit granulocyte peptides (Table III), S. agalactiae Type-I-A; assay type: cell-based; conditions: 50 μg/ml, 20 min; for Bactericidal activity log10 No /N, Streptococcus agalactiae Type 1A, pH 5.8: 10 mM phosphate buffer pH 5.8; for Bactericidal activity log10 No /N, Streptococcus agalactiae Type-I-A: 37° C., 10 mM sodium phosphate buffer pH 7.4; for Bactericidal activity log10 No /N, Streptococcus agalactiae Type 1A, "High" ionic strength: buffer pH 7.4 supplemented with 0.14 M NaCl
Description: as §2

[9] = tested on: Streptococcus agalactiae Type IIIU; test: Antibacterial activity of rabbit granulocyte peptides (Table III), S. agalactiae Type IIIU; assay type: cell-based; conditions: 50 μg/ml, 20 min, 37° C., 10 mM sodium phosphate buffer pH 7.4
Description: as §2

[10] = tested on: Listeria monocytogenes 450; test: Antibacterial activity of rabbit granulocyte peptides (Table III), L. monocytogenes; assay type: cell-based; conditions: 50 μg/ml, 20 min; for Bactericidal activity log10 No /N, Listeria monocytogenes 450, pH 5.8: 10 mM phosphate buffer pH 5.8; for Bactericidal activity log10 No /N, Listeria monocytogenes 450: 37° C., 10 mM sodium phosphate buffer pH 7.4; for Bactericidal activity log10 No /N, Listeria monocytogenes 450, "High" ionic strength: buffer pH 7.4 supplemented with 0.14 M NaCl
Description: as §2

[11] = tested on: Pseudomonas aeruginosa PAO 579; test: Antibacterial activity of rabbit granulocyte peptides (Table III), P. aeruginosa; assay type: cell-based; conditions: 50 μg/ml, 20 min; for Bactericidal activity log10 No /N, Pseudomonas aeruginosa PAO 579, pH 5.8: 10 mM phosphate buffer pH 5.8; for Bactericidal activity log10 No /N, Pseudomonas aeruginosa PAO 579: 37° C., 10 mM sodium phosphate buffer pH 7.4; for Bactericidal activity log10 No /N, Pseudomonas aeruginosa PAO 579, "High" ionic strength: buffer pH 7.4 supplemented with 0.14 M NaCl
Description: as §2

[12] = tested on: Escherichia coli ATCC 29648; test: Antibacterial activity of rabbit granulocyte peptides (Table III), E. coli; assay type: cell-based; conditions: 50 μg/ml, 20 min, 37° C., 10 mM sodium phosphate buffer pH 7.4
Description: as §2

[13] = tested on: Klebsiella pneumoniae ATCC 13883; test: Antibacterial activity of rabbit granulocyte peptides (Table III), K. pneumoniae; assay type: cell-based; conditions: 50 μg/ml, 20 min; for Bactericidal activity log10 No /N, Klebsiella pneumoniae ATCC 13883, pH 5.8: 10 mM phosphate buffer pH 5.8; for Bactericidal activity log10 No /N, Klebsiella pneumoniae ATCC 13883: 37° C., 10 mM sodium phosphate buffer pH 7.4; for Bactericidal activity log10 No /N, Klebsiella pneumoniae ATCC 13883, "High" ionic strength: buffer pH 7.4 supplemented with 0.14 M NaCl
Description: as §2

Serratia marcescens = test: Antibacterial activity of rabbit granulocyte peptides (Table III), S. marcescens; assay type: cell-based; conditions: 50 μg/ml, 20 min, 37° C., 10 mM sodium phosphate buffer pH 7.4
Description: as §2

[14] = tested on: Hemophilus influenzae Type 3A; test: Antibacterial activity of rabbit granulocyte peptides (Table III), H. influenzae; assay type: cell-based; conditions: 50 μg/ml, 20 min, 37° C., 10 mM sodium phosphate buffer pH 7.4
Description: as §2

[15] = tested on: Bordetella bronchiseptica UCLA-342; test: Antibacterial activity of rabbit granulocyte peptides (Table III), B. bronchiseptica; assay type: cell-based; conditions: 50 μg/ml, 20 min, 37° C., 10 mM sodium phosphate buffer pH 7.4
Description: as §2

H. influenzae = test: Antibacterial action, % killing (Table II), H. influenzae; assay type: cell-based, Haemophilus influenzae; conditions: 50 μg/ml peptide, 10^7 bacterial cells/ml, 20 min, 37°
Description: as §1

K. pneumoniae = test: Antibacterial action, % killing (Table II), K. pneumoniae; assay type: cell-based, Klebsiella pneumoniae; conditions: 50 μg/ml peptide, 10^7 bacterial cells/ml, 20 min, 37°
Description: as §1

IFN-α [reference compound]
decrease in VSV yield (VSV): 6 log10
decrease in HSV-1 yield (HSV-1): 0.6 log10

asp cys tyr cys arg ile pro ala cys ile ala gly glu arg arg tyr gly thr cys ile tyr gln gly arg leu trp ala phe cys cys [HNP-3]
microbicidal activity compared with the other HNP, S. aureus 502A [1]: less microbicidal than the other oligopeptides
microbicidal activity compared with the other HNP, E. coli ML-35 (E. coli ML-35): less microbicidal than the other oligopeptides
microbicidal activity compared with the other HNP, C. neoformans C-384 [2]: less microbicidal than the other oligopeptides

gly arg cys val cys arg lys gln 21eu cys ser tyr arg glu arg arg ile gly asp cys lys ile arg gly val arg phe pro phe cys cys pro arg [NP-3b]
% Killing, S. albus (S. albus): D (<50% killing)
% Killing, S. aureus 502A (S. aureus 502A): D (<50% killing)
% Killing, L. monocytogenes (L. monocytogenes): B (90-99% killing)
% Killing, E. coli (E. coli): C (50-90% killing)
% Killing, Ps. aeruginosa (Ps. aeruginosa): A (>99% killing)
% Killing, S. marscescens (S. marscescens): B (90-99% killing)
Bactericidal activity log10 No /N, Staphylococcus aureus 566 [3]: 1.7 log10
Bactericidal activity log10 No /N, Staphylococcus aureus 502A [4]: 0.3 log10
Bactericidal activity log10 No /N, Staphylococcus aureus J.F. [5]: 0.8 log10
Bactericidal activity log10 No /N, Staphylococcus epidermidis UCLA-622 [6]: 1.7 log10
Bactericidal activity log10 No /N, Streptococcus pneumoniae Type III [7]: > 3.5 log10
Bactericidal activity log10 No /N, Streptococcus agalactiae Type 1A, pH 5.8 [8]: 0.2 log10
Bactericidal activity log10 No /N, Streptococcus agalactiae Type-I-A [8]: 0.9 log10
Bactericidal activity log10 No /N, Streptococcus agalactiae Type 1A, "High" ionic strength [8]: 0.0 log10
Bactericidal activity log10 No /N, Streptococcus agalactiae Type IIIU [9]: 1.2 log10
Bactericidal activity log10 No /N, Listeria monocytogenes 450, pH 5.8 [10]: 0.0 log10
Bactericidal activity log10 No /N, Listeria monocytogenes 450 [10]: 4.3 log10
Bactericidal activity log10 No /N, Listeria monocytogenes 450, "High" ionic strength [10]: 0.0 log10
Bactericidal activity log10 No /N, Pseudomonas aeruginosa PAO 579, pH 5.8 [11]: 0.0 log10
Bactericidal activity log10 No /N, Pseudomonas aeruginosa PAO 579 [11]: 4.2 log10
Bactericidal activity log10 No /N, Pseudomonas aeruginosa PAO 579, "High" ionic strength [11]: 0.0 log10
Bactericidal activity log10 No /N, Escherichia coli ATCC 29648 [12]: 1.4 log10
Bactericidal activity log10 No /N, Klebsiella pneumoniae ATCC 13883, pH 5.8 [13]: 0.2 log10
Bactericidal activity log10 No /N, Klebsiella pneumoniae ATCC 13883 [13]: 3.4 log10
Bactericidal activity log10 No /N, Klebsiella pneumoniae ATCC 13883, "High" ionic strength [13]: 0.0 log10
Bactericidal activity log10 No /N, Serratia marcescens (Serratia marcescens): 0.7 log10
Bactericidal activity log10 No /N, Hemophilus influenzae Type 3A [14]: 0.7 log10
Bactericidal activity log10 No /N, Bordetella bronchiseptica UCLA-342 [15]: 0.1 log10

gly ile cys ala cys arg arg arg phe cys pro asn ser glu arg phe ser gly tyr cys arg val asn gly ala arg tyr val arg cys cys ser arg arg [NP-3a]
% Killing, S. albus (S. albus): D (<50% killing)
% Killing, S. aureus 502A (S. aureus 502A): D (<50% killing)
% Killing, L. monocytogenes (L. monocytogenes): D (<50% killing)
% Killing, E. coli (E. coli): D (<50% killing)
% Killing, Ps. aeruginosa (Ps. aeruginosa): A (>99% killing)
% Killing, H. influenzae (H. influenzae): B (90-99% killing)
% Killing, K. pneumoniae (K. pneumoniae): A (>99% killing)
% Killing, S. marscescens (S. marscescens): C (50-90% killing)
Bactericidal activity log10 No /N, Staphylococcus aureus 566 [3]: 1.3 log10
Bactericidal activity log10 No /N, Staphylococcus aureus 502A [4]: 0.0 log10
Bactericidal activity log10 No /N, Staphylococcus aureus J.F. [5]: 0.4 log10
Bactericidal activity log10 No /N, Staphylococcus epidermidis UCLA-622 [6]: 1.3 log10
Bactericidal activity log10 No /N, Streptococcus pneumoniae Type III [7]: > 3.5 log10
Bactericidal activity log10 No /N, Streptococcus agalactiae Type 1A, pH 5.8 [8]: 0.0 log10
Bactericidal activity log10 No /N, Streptococcus agalactiae Type-I-A [8]: 0.6 log10
Bactericidal activity log10 No /N, Streptococcus agalactiae Type 1A, "High" ionic strength [8]: 0.0 log10
Bactericidal activity log10 No /N, Streptococcus agalactiae Type IIIU [9]: 0.3 log10
Bactericidal activity log10 No /N, Listeria monocytogenes 450, pH 5.8 [10]: 0.0 log10
Bactericidal activity log10 No /N, Listeria monocytogenes 450 [10]: 0.2 log10
Bactericidal activity log10 No /N, Listeria monocytogenes 450, "High" ionic strength [10]: 0.1 log10
Bactericidal activity log10 No /N, Pseudomonas aeruginosa PAO 579, pH 5.8 [11]: 0.1 log10
Bactericidal activity log10 No /N, Pseudomonas aeruginosa PAO 579 [11]: 3.2 log10
Bactericidal activity log10 No /N, Pseudomonas aeruginosa PAO 579, "High" ionic strength [11]: 0.1 log10
Bactericidal activity log10 No /N, Escherichia coli ATCC 29648 [12]: 0.6 log10
Bactericidal activity log10 No /N, Klebsiella pneumoniae ATCC 13883, pH 5.8 [13]: 0.4 log10
Bactericidal activity log10 No /N, Klebsiella pneumoniae ATCC 13883 [13]: 2.4 log10
Bactericidal activity log10 No /N, Klebsiella pneumoniae ATCC 13883, "High" ionic strength [13]: 0.0 log10
Bactericidal activity log10 No /N, Serratia marcescens (Serratia marcescens): 0.5 log10
Bactericidal activity log10 No /N, Hemophilus influenzae Type 3A [14]: > 1.1 log10
Bactericidal activity log10 No /N, Bordetella bronchiseptica UCLA-342 [15]: 0.1 log10
